Source: the NIST ThermoML archive (doi:10.1016/j.jct.2005.05.003)

Settings: Liquid, Vibrating tube method

CO [methanol]
Settings	mass density [kg/m3]
298.26 K, 235 kPa	785.98
298.26 K, 5000 kPa	790.69
298.26 K, 9999 kPa	795.4
298.26 K, 15013 kPa	799.88
298.26 K, 19987 kPa	804.1
298.26 K, 25008 kPa	808.17
298.26 K, 29997 kPa	812.04
298.26 K, 34991 kPa	815.76
298.26 K, 39981 kPa	819.34
323.22 K, 270 kPa	762.14
323.22 K, 4990 kPa	767.53
323.22 K, 9984 kPa	772.87
323.22 K, 14982 kPa	777.91
323.22 K, 19989 kPa	782.69
323.22 K, 24986 kPa	787.21
323.22 K, 29995 kPa	791.53
323.22 K, 34987 kPa	795.64
323.22 K, 39993 kPa	799.6
348.25 K, 366 kPa	737.29
348.25 K, 4987 kPa	743.46
348.25 K, 9986 kPa	749.65
348.25 K, 14991 kPa	755.42
348.25 K, 20004 kPa	760.84
348.25 K, 25020 kPa	765.94
348.25 K, 30013 kPa	770.76
348.25 K, 34989 kPa	775.32
348.25 K, 40000 kPa	779.7
373.26 K, 534 kPa	710.55
373.26 K, 4983 kPa	717.67
373.26 K, 9990 kPa	724.99
373.26 K, 14998 kPa	731.69
373.26 K, 19985 kPa	737.88
373.26 K, 24994 kPa	743.68
373.26 K, 29997 kPa	749.13
373.26 K, 35001 kPa	754.27
373.26 K, 39996 kPa	759.14
398.28 K, 934 kPa	680.93
398.28 K, 4984 kPa	689
398.28 K, 9998 kPa	697.91
398.28 K, 14986 kPa	705.88
398.28 K, 19987 kPa	713.16
398.28 K, 24992 kPa	719.87
398.28 K, 29991 kPa	726.11
398.28 K, 35005 kPa	731.99
398.28 K, 40004 kPa	737.47
